Experimental data: patent publication US10328077B2 (CELGENE CORPORATION, priority 2016, dated 2019)

Legend:
[1] = system: LXFS 573 SCLC patient-derived xenograft; assay: LXFS 573 SCLC PDX model (monotherapy); type: in vivo, mice; conditions: for % TGI / TGI: Day 28
[2] = system: gene expression in MKL-1 and MS-1 hMCC cell lines; assay: RNA-seq modulation of gene expression in cultured hMCC cells; type: cell-based, human; conditions: 10 and 100 nM
Method: The modulation of gene expression by Compund A for a panel of human genes was determined by culturing MKL-1 or MS-1 cells (Sigma-Aldrich, St. Louis, Mo.) for three days in the presence of 0, 10, or 100 nM Compund A and extracting total RNA for assessment by RNA-seq.
Libraries were sequenced on an Illumina NextSeq® 500 System (Illumina, San Diego, Calif.) using 75 base paired-end RNA sequencing. Sequenced reads were mapped to the hg19 human genome build and differential expression was determined by analysis of variance across all replicates relative to the vehicle control.
Sequenced reads were mapped to the hg19 human genome build using the Spliced Transcripts Alignment to a Reference (STAR) software tool (©Alexander Dobin, 2009-2016) and transcript counts were normalized using the Empirical Analysis of Digital Gene Expression Data in R (edgeR) and Differential gene expression analysis based on the negative binomial distribution (DESeq2) software tools (©Bioconductor, 2003-2017). Differential expression was determined by analysis of variance across all replicates relative to the vehicle control.

[3] = system: NCI-H1417 SCLC xenograft; assay: NCI-H1417 SCLC xenograft efficacy, athymic nude mice; type: in vivo; conditions: for % TGI: Day 65; for mean body weight gain: end of study
[4] = Pharmacokinetics after IV and oral dose, mice; type: in vivo, CD-1 mice; conditions: mouse
[5] = system: LU1480 SCLC patient-derived xenograft; assay: LU1480 HuPrime SCLC PDX model; type: in vivo, mice
[6] = system: LNCaP cells; assay: LNCaP cell proliferation with DHT and irradiation; type: cell-based, human; conditions: 10 nM DHT + 100 nM Compound A + 2Gy irradiation vs DHT + irradiation or DHT + Compound A, 220 hours
Method: LNCaP cells are androgen-sensitive human prostate adenocarcinoma cells. […] The proliferation of the LNCap cells was monitored for 220 hours.

[7] = Excretion in bile duct cannulated rats; type: in vivo; conditions: IV, 24-hour period
[8] = in vivo; conditions: Beagle, dog, po; for AUC(0-t): AUC0-96
[9] = target: muscarinic M1 receptor (Homo sapiens (Human), UniProt P11229); assay: CEREP in vitro pharmacology panel, muscarinic M1 receptor
[10] = target: CYP3A4 (Homo sapiens (Human), UniProt P08684); assay: CYP inhibition in pooled human liver microsomes, CYP3A4; type: in vitro ADME
[11] = LXFS 615 SCLC PDX model; type: in vivo, mice; conditions: female, NMRI-Foxnlnu, mouse, oral; 5 mg base/kg, plasma after final dose; read-out: AUC0-24
[12] = system: LXFS 615 SCLC patient-derived xenograft; assay: LXFS 615 SCLC PDX model; type: in vivo, mice
[13] = Pharmacokinetics after IV and oral dose, monkeys; type: in vivo; conditions: cynomolgus monkey, plasma, male; for half-life: read-out: t1/2, z (converted)
[14] = Pharmacokinetics after IV and oral dose, rats; type: in vivo, Sprague Dawley rats; conditions: for half-life: read-out: t1/2, z (converted)
[15] = CD-1, plasma, female, single IV dose 5 mg
[16] = CD-1, plasma, female, single oral dose 10 mg base/kg
[17] = Sprague Dawley, plasma, rat, female, single IV dose 5 mg
[18] = Sprague Dawley, plasma, rat, female, single oral dose 5 mg base/kg
[19] = Sprague Dawley, plasma, rat, female, single oral dose 15 mg base/kg
[20] = Sprague Dawley, plasma, rat, female, single oral dose 50 mg base/kg

Chain of muscarinic M1 receptor (P11229 whole entry): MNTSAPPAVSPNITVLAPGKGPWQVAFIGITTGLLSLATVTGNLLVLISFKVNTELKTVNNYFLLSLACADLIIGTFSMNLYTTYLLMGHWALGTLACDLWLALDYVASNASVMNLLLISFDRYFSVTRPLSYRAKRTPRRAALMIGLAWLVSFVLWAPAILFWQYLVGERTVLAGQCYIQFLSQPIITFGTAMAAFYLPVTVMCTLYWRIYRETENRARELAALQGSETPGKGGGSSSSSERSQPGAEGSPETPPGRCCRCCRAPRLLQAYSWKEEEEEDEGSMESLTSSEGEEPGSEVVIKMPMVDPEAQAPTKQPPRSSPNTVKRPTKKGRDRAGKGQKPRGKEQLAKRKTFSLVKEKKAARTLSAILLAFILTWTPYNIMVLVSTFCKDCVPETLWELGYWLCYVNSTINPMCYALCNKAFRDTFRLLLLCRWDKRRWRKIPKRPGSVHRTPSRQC
Chain of CYP3A4 (P08684 whole entry): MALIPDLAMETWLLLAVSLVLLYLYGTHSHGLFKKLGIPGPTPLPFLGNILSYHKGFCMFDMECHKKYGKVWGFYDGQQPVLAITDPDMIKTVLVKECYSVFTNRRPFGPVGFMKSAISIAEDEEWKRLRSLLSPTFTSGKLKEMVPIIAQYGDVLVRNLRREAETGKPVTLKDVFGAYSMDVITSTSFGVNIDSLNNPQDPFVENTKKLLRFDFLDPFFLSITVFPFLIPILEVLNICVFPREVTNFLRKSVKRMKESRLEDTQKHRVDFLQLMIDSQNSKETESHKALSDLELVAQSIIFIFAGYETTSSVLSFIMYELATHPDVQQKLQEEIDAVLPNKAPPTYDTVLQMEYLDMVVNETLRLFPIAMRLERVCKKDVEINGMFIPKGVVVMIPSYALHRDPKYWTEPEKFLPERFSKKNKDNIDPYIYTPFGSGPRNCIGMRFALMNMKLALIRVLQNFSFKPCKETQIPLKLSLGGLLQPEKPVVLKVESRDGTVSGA

COc1ccc(-c2c(-c3ccc(C#N)c(F)c3)nc(N3CCC(N)CC3)n(C)c2=O)cc1F [Compound A, 4-[2-(4-amino-piperidin-1-yl)-5-(3-fluoro-4-methoxy-phenyl)-1-methyl-6-oxo-1,6-dihydro-pyrimidin-4-yl]-2-fluoro-benzonitrile]
Median Tumor Volume Day 28 ([1]; 5 mg base/kg PO QDx28): 308.3 mm^3 | Median Tumor Volume Diff. (Day 28 - Day 0) ([1]; 5 mg base/kg PO QDx28): 199.9 mm^3 | % TGI ([1]; 5 mg base/kg PO QDx28): 78% | TGI ([1]; 5 mg base/kg oral): 78% | Median Tumor Volume Day 28 ([1]; 7.5 mg base/kg PO QDx28): 496.6 mm^3 | Median Tumor Volume Diff. (Day 28 - Day 0) ([1]; 7.5 mg base/kg PO QDx28): 383.4 mm^3 | Median Tumor Volume Day 28 ([1]; 10 mg base/kg PO QDx28): 376.8 mm^3 | Median Tumor Volume Diff. (Day 28 - Day 0) ([1]; 10 mg base/kg PO QDx28): 263.0 mm^3 | % TGI ([1]; 10 mg base/kg PO QDx28): 71% | TGI ([1]; 10 mg/kg oral): 71% | mean body weight loss ([1]; mouse, in vivo): ≤ 3% | downregulated genes with expression changes in both hMCC lines at both concentrations (of 4303) ([2]; 3 days, MKL-1 and MS-1): 17 | upregulated genes with expression changes in both hMCC lines at both concentrations (of 3803) ([2]; 3 days, MKL-1 and MS-1): 172 | ST18 and FREM2 gene expression change (upregulated) ([2]; both hMCC lines): at least 2 fold | Median Tumor Volume Day 65 ([3]; 2.5 mg base/kg PO QDx65): 39.3 mm^3 | Median Tumor Volume Diff. (Day 65 - Day 0) ([3]; 2.5 mg base/kg PO QDx65): −69.9 mm^3 | % TGI ([3]; 2.5 mg base/kg PO QDx65): 159% | TGI ([3]; 2.5 mg base/kg oral QD×65, Day 65): 159% | mean body weight gain ([3]; 2.5 mg base/kg): 1% | Median Tumor Volume Day 65 ([3]; 5 mg base/kg PO QDx65): 15.9 mm^3 | Median Tumor Volume Diff. (Day 65 - Day 0) ([3]; 5 mg base/kg PO QDx65): −92.3 mm^3 | % TGI ([3]; 5 mg base/kg PO QDx65): 178% | TGI ([3]; 5 mg base/kg oral QD×65, Day 65): 178% | mean body weight gain ([3]; 5 mg base/kg): 7.5% | tumors regressed in net volume ([3]; 2.5 and 5 mg base/kg groups together): 14 out of 15 | half-life ([4]; CD-1 (mice), Sprague Dawley (rats), plasma, IV, rodents (mice, rats), read-out: half-life): 2 to 4 h | Tmax ([4]; CD-1, Sprague Dawley, Beagle, plasma, oral, across mice, rats, dogs, monkeys, read-out: median tmax): 0.5 to 6 h | bioavailability ([4]; CD-1, Sprague Dawley, plasma, po, rodents, read-out: oral bioavailability): 28 to 74% | AUC(0-inf) [4, 15]: 2660 ng·h/mL | AUC(0-t) [4, 15]: 2220 ng·h/mL | clearance [4, 15]: 32 mL/min/kg | Vd ([4]; CD-1, plasma, female, single IV dose 5 mg, read-out: Vss): 7.51 L/kg | half-life ([4]; CD-1, plasma, female, single IV dose 5 mg, read-out: t1/2, z (converted)): 3.8 h | AUC(0-t) [4, 16]: 2010 ng·h/mL | Cmax [4, 16]: 510 ng/mL | bioavailability ([4]; CD-1, plasma, female, single oral dose 10 mg base/kg, read-out: % F): 38% | half-life ([4]; CD-1, plasma, female, single oral dose 10 mg base/kg, read-out: t1/2, z (converted)): 1.7 h | Tmax ([4]; CD-1, plasma, female, single oral dose 10 mg base/kg, read-out: tmax): 0.5 h | Median Tumor Volume Day 21 ([5]; 5 mg base/kg PO QDx21): 490.1 mm^3 | Median Tumor Volume Diff. (Day 21 - Day 1) ([5]; 5 mg base/kg PO QDx21): 400.6 mm^3 | Median Tumor Volume Day 21 ([5]; 10 mg base/kg PO QDx21): 321.4 mm^3 | Median Tumor Volume Diff. (Day 21 - Day 1) ([5]; 10 mg base/kg PO QDx21): 234.3 mm^3 | % TGI ([5]; 10 mg base/kg PO QDx21, Day 21): 72% | TGI ([5]; 10 mg base/kg oral for 21 days): 72% | LNCaP cell proliferation [6]: significantly inhibits LNCaP cell proliferation | dose excreted intact (urine + bile) [7]: 26.3 % of the dose | dose excreted intact in bile [7]: 17.8 % of dose | dose excreted intact in urine [7]: 8.5 % of dose | AUC(0-t) ([8]; both, 0.125 mg/kg): 127 ng·h/mL | Cmax ([8]; both, 0.125 mg/kg, Cmax): 5.26 ng/mL | Cmax ([8]; both, 0.125 mg/kg, combined Day 15 mean Cmax): 5.26 ng/mL | Cmax ([8]; both, 0.25 mg/kg, combined Day 15 mean Cmax): 11 ng/mL | Cmax ([8]; both, 0.5 mg/kg, combined Day 15 mean Cmax): 22 ng/mL | AUC(0-t) ([8]; both): 120 ng·h/mL | Cmax ([8]; both, Cmax): 5.79 ng/mL | AUC(0-t) ([8]; female, 0.25 mg/kg): 343 ng·h/mL | Cmax ([8]; female, 0.25 mg/kg, Cmax): 12.1 ng/mL | AUC(0-t) ([8]; female, 0.5 mg/kg): 729 ng·h/mL | Cmax ([8]; female, 0.5 mg/kg, Cmax): 26.6 ng/mL | AUC(0-t) ([8]; female): 141 ng·h/mL | AUC(0-t) ([8]; male, 0.25 mg/kg): 335 ng·h/mL | Cmax ([8]; male, 0.25 mg/kg, Cmax): 11.9 ng/mL | AUC(0-t) ([8]; male, 0.5 mg/kg): 762 ng·h/mL | Cmax ([8]; male, 0.5 mg/kg, Cmax): 24 ng/mL | AUC(0-t) ([8]; male): 107 ng·h/mL | Ki [9]: 1.6 µM | inhibition at 10 µM ([9]; read-out: inhibition of ligand binding): 76% | IC50 [10]: > 50 µM | AUC(0-t) [11]: 1620 ng·h/mL | mean body weight loss ([12]; 5 mg base/kg): < 1% | TGI ([12]; 5 mg base/kg oral for 30 days): 78% | AUC(0-inf) ([13]; single IV dose 1 mg): 983 ng·h/mL | AUC(0-t) ([13]; single IV dose 1 mg): 912 ng·h/mL | clearance ([13]; single IV dose 1 mg): 18 mL/min/kg | Vd ([13]; single IV dose 1 mg, mean (SD), read-out: Vss): 17.1 L/kg | half-life ([13]; single IV dose 1 mg): 12 h | AUC(0-t) ([13]; single oral dose 5 mg base/kg): 3620 ng·h/mL | Cmax ([13]; single oral dose 5 mg base/kg): 187 ng/mL | Tmax ([13]; single oral dose 5 mg base/kg): 6 h | bioavailability ([13]; single oral dose 5 mg base/kg): 82% | half-life ([13]; single oral dose 5 mg base/kg): 12.9 h | systemic clearance ([14]; IV, rats (greater than liver blood flow)): high | AUC(0-inf) [14, 17]: 733 ng·h/mL | AUC(0-t) [14, 17]: 680 ng·h/mL | clearance [14, 17]: 115 mL/min/kg | Vd ([14]; Sprague Dawley, plasma, rat, female, single IV dose 5 mg, mean (SD), read-out: Vss): 26.2 L/kg | half-life [14, 17]: 3.6 h | AUC(0-t) [14, 18]: 222 ng·h/mL | Cmax [14, 18]: 47 ng/mL | Tmax [14, 18]: 2 h | bioavailability [14, 18]: 33% | half-life [14, 18]: 3 h | AUC(0-t) [14, 19]: 570 ng·h/mL | Cmax [14, 19]: 123 ng/mL | Tmax [14, 19]: 2 h | bioavailability [14, 19]: 28% | half-life [14, 19]: 2.9 h | AUC(0-t) [14, 20]: 4650 ng·h/mL | Cmax [14, 20]: 621 ng/mL | Tmax [14, 20]: 6 h | bioavailability [14, 20]: 74% | half-life [14, 20]: 3 h
